# Measured values published in patent US20220233652A1, “Pharmaceutical Compositions Comprising Integration-Promoting Peptides” (priority 2018, published 2022).
# Where two headings read alike, the source gives them in different places. No end group written: not given here.
# Legend:
# [1] = Phase I/IIa clinical trial: safety and tolerability; format: in vivo, human; details: HIV patients, SC twice weekly, 1% poloxamer 188 and 9% lactose formulation; preliminary results
# Excerpt: Patients are monitored for adverse events (AE) of the INS peptide such as rash, acute allergic reaction, bronchospasm, respiratory distress, and acute vascular leak syndrome. If a severe administration related reaction occurs, the drug administration is stopped. Blood chemistry, hematology, coagulation, and urinalysis are repeated on Days 1, 4, 8, 11, 15, 18, 22, 25 at the clinic visits.
# The primary safety endpoint is the frequency, severity, and duration of side effects. Number of participants with treatment-related adverse events as assessed by CTCAE v4.03, are evaluated though study completion. Main adverse events evaluation is based on DADS Toxicity criteria (Division of AIDS DADS Table for Grading the Severity of Adult and Paediatric Adverse Events, Corrected Version 2.1): • Viral load • Lymphopenia/Neutropenia • Immuno-reaction over reaction/cytokine storm • Infection surrounding the administration site • Liver function (lab tests) • Kidney function (lab tests)
# Incidence of withdrawal (drop-out rate) due to side effects is evaluated throughout the study.
# [2] = Stability study of lyophilized formulation after reconstitution; format: physicochemical
# Protocol: To obtain an isotonic solution having desired osmolality of about 300-330 mOsm/kg, the poloxamer percentage was reduced to 0.8% and the lactose percentage was reduced to 9.5%. The solution formulation F45 was prepared in a 40 ml clear glass vial according to Table 20. The pH was adjusted by NH4OH. […]
# The physical and chemical stability of lyophilized powder obtained in Example 10 was investigated. The lyophilized powder was stored at −20° C. […] Formulations before filtration were used as a control (initial state) at each time point. […] At the time point: 0 h, 24 hours and 7 days appearance, pH and osmolarity were tested and the solutions were analyzed by HPLC for the presence of degradation. The recovery percent after filtration was also calculated. To investigate short-term in-use stability, additional 218 mg of lyophilized material was reconstituted, and the solution was stored at room temperature for 4 hours. […]
# [3] = Stability of formulations F4, F7 and F10 (HPLC); format: physicochemical; details: F4, F7 and F10, ambient temperature and 4° C., 24 hours
# Protocol: To investigate the stability of formulation F4, F7 and F10 they were stored at ambient temperature and at 4° C. Samples were taken out at time zero (initial) and after 24 hours and diluted 10 times with water prior to HPLC analysis. The results were compared to the standard peptide 0.5 mg/ml in water (STD).
# [4] = Preliminary solubility test of INS peptide salts in co-solvents and water; format: physicochemical; details: for solubility: read-out: Approximate Solubility; for Solubility in PBS: physiological conditions
# Protocol: Solubility of different INS peptide salts was measured in several co-solvents and in water.
# [5] = system: 1975 human lung cancer cells; assay: Lung cancer tumor mice model; format: in vivo, athymic nude mice; details: INS HCL and tumor-targeted lentiviral particles; lung cancer and pancreatic cancer models
# Protocol: Two models of cancer were generated: lung cancer and pancreatic cancer. About 5×10^6 of 1975 human lung cancer cells per 0.1 ml PBS per mouse were injected to male 7 weeks old athymic nude mice (n=30). The cells were injected, subcutaneously at one site on the back of the mice. About 5×10^6 PANC-1 human pancreatic cancer cells per 0.1 ml PBS per mouse were injected to male 7 weeks old athymic nude mice (n=22). The cells were injected, subcutaneously at one site on the back of the mice. When tumors were palpable (˜0.3-0.5 cm^3), the mice were randomly divided into three groups (Table 27) and the viruses and/or peptides were injected, twice a week for two weeks.
# The first day of the study was defined as ‘Day 1’. The animals were administrated IP with either Vehicle (PBS or Formulation), lentiviral particles and SC with test items according to Table 27 on days 1, 4, 8 and 11. Body weight and tumor volume were checked on days 3, 7, 11, 14 and 17 (the latter was measured with a caliper). At the end of the experiment, on day 17, the mice were anesthetized and then sacrificed, and the tumors were removed, as well as lung, spleen, kidney and liver.
sequence,measurement,setting,value
WTAVQMAVFIHNFKRK [INS HCl],Safety and tolerability,[1],safe and well tolerable
same,Peptide adsorbed to PES filters,[2]; PES filters,about 30%
same,Time stable at room temperature after reconstitution,"[2]; room temperature, no significant difference in comparison to control",at least 4 hours
same,Stability in formulations,[3],high stability in all formulations
same,solubility,[4]; DMSO,≤ 10000 µg/mL
same,Appearance in H2O,[4]; H2O,slightly opalescence
same,pH in H2O,"[4]; H2O, 10 mg/ml",2.60
same,Approximate Solubility,[4]; PBS,Not soluble
same,Solubility in PBS,[4]; PBS,practically insoluble
same,Solubility in PEG400,[4]; PEG400,poor solubility
same,solubility,[4]; PEG400,< 5000 µg/mL
same,Appearance in propylene glycol,"[4]; Propylene glycol (PG), 5mg/ml",clear solution
same,Solubility in ethanol,[4]; ethanol,poor solubility
same,solubility,[4]; ethanol,< 5000 µg/mL
same,solubility,[4]; propylene glycol (PG),5000 to 10000 µg/mL
same,Solubility in PG,"[4]; propylene glycol, a clear solution was obtained",moderate solubility
same,Appearance of solution in water,[4]; water,solution with opalescence
same,pH of solution in water,[4]; water,2.6
same,solubility,"[4]; water, pH 2.6, H2O",> 10000 µg/mL
same,Decrease in growth of tumors,[5],up to 50%
WTAVQMAVFIHNFKRK [INS TFA],Concentration dissolved in DMSO,[4]; DMSO,≤ 10000 µg/mL
same,Behaviour upon dilution in PBS,[4]; solution in water or DMSO diluted in PBS,precipitated
same,Concentration dissolved in water,[4]; water,≤ 10000 µg/mL
WTAVQMAVFIHNFKRK [INS acetate],Solubility in DMSO,[4]; DMSO,completely insoluble
same,Solubility in PBS,[4]; PBS,completely insoluble
same,pH above which the dissolved salt precipitated,"[4]; dissolved in low pH, pH raised",above 4
same,Solubility in water,[4]; water,soluble
